Assay results reported in US20100099756A1, “USES OF INCENSOLE, INCENSOLE ACETATE AND DERIVATIVES THEREOF” (YISSUM RESEARCH DEVELOPMENT COMPANY OF THE HEBREW …, priority 2006, published 2010).

Assays:
Type in all cases: cell-based
mouse TRPV3-YFP [1] = molecular target: T1, mouse TRPV3-YFP (Mus musculus, UniProt Q8K424); assay: Calcium imaging of HEK293 cells expressing mouse TRPV3-YFP; conditions: IA 100 μM; 2-APB positive control
T1 construct: expressed in transfected cells
T1 sequence (Q8K424 1-791): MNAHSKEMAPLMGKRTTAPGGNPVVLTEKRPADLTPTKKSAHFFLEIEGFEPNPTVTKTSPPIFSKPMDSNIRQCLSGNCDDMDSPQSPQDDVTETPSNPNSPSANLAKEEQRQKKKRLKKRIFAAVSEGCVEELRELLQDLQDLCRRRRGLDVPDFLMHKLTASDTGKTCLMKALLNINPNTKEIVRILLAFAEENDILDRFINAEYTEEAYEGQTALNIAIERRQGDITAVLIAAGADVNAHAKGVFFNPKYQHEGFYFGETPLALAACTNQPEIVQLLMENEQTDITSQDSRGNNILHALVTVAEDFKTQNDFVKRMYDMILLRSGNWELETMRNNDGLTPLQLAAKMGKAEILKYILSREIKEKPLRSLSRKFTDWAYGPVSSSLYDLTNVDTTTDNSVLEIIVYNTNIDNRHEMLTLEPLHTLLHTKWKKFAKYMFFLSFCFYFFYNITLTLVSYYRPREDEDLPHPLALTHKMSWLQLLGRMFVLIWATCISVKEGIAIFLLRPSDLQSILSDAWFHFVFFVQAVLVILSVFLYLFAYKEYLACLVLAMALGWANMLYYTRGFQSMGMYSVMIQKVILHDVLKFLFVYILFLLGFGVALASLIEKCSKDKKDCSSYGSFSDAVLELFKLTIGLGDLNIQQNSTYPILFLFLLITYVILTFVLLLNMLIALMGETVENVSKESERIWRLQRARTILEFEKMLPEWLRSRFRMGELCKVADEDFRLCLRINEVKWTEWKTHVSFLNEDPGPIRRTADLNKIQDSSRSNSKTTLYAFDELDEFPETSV
Protocol: (§1) All error bars indicate SEM; p values in all subfigures but c represent analysis with one-way ANOVA Bonferroni's post hoc.
TRPV3-YFP [O'dell, D. K., Rimmerman, N., Pickens, S. R. & Walker J. M. Fatty acyl amides of endogenous tetrahydroisoquinolines are active at the recombinant human TRPV1 receptor. […] Med. Chem. 15, 6164-6169 (2007)], TRPV4 and mock-transfected cell lines were cultured in DMEM 1× with L-glutamine (Mediatech, Inc. Herndon, Va.), containing 1% penicillin-streptomycin (Invitrogen, Carlsbad, Calif.) and 10% foetal bovine serum.
(§2) Calcium imaging of HEK 293 cells. TRPV1, TRPV3, and TRPV4 expressing HEK293 cells were plated 24-48 h before imaging in 96 well plates, loaded with 3 μM Fura-2 AM and imaged as previously described [O'dell, D. K., Rimmerman, N., Pickens, S. R. & Walker J. M. Fatty acyl amides of endogenous tetrahydroisoquinolines are active at the recombinant human TRPV1 receptor. […] Med. Chem. 15, 6164-6169 (2007)].
(§3) For single cell calcium imaging, HEK293-rat TRPV2 and HEK293-mouse TRPV3-YFP expressing cells were plated on collagen-coated glass cover slips. Cells were loaded for 60 min with 3 μM Fura-2 AM.
Data analysis of calcium imaging data. Analysis of calcium imaging data was done using a non-linear regression curve fit (Graphpad 4 Prism, San Diego, Calif.). t tests and one way ANOVA were calculated using SPSS (Chicago, Ill.). In the keratinocyte experiments, drug-induced response for each cell was taken as the maximal post-drug measurements over time minus the average of the last 5 pre-drug measurements. Averaged drug responses over 30 randomly selected cells per coverslip were analyzed with two-tailed unpaired t tests.

rat-TRPV2 = molecular target: T2, rat-TRPV2 (Rattus norvegicus, UniProt Q9WUD2); assay: Calcium imaging of HEK293 cells transiently transfected with rat-TRPV2; conditions: IA 100 μM
T2 construct: expressed in transfected cells; host or cells: HEK293 (transient, lipofectamine)
T2 sequence (Q9WUD2 whole entry): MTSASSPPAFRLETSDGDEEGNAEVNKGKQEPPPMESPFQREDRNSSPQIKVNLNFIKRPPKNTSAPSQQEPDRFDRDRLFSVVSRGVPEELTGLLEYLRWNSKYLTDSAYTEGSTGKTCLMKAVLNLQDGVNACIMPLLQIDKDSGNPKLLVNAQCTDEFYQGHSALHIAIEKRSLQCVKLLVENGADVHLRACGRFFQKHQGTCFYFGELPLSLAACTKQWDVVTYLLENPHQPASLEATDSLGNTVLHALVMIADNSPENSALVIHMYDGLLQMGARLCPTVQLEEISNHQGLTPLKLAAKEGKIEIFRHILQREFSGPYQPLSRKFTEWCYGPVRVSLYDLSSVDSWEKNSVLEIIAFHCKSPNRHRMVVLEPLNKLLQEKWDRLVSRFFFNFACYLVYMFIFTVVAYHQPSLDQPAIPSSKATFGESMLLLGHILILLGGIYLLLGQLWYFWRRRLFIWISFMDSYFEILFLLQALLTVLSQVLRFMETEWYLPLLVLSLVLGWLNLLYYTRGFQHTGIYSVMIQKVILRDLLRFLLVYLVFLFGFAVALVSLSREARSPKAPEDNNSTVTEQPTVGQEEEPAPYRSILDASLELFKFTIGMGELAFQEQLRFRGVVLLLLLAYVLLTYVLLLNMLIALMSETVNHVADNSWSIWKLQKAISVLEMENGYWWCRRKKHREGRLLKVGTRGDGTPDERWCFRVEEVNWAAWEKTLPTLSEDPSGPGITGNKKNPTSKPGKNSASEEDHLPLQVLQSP
Excerpt: as §1
(§4) HEK293 cells were transiently transfected with a rat TRPV2 plasmid using lipofectamine reagent (Invitrogen, Carlsbad, Calif.) according to manufacturer's protocol. They were then maintained in Dulbecco's modified Eagle Medium/10% fetal calf serum supplemented with Penicillin, Streptomycin, and L-glutamine. Primary keratinocytes from TRPV3-deficient and TRPV3+/+ mouse pups (day 1-4) were harvested and cultured as described previously [Chung, M. K., Lee, H., Mizuno, A., Suzuki, M. & Caterina, M. J. TRPV3 and TRPV4 mediate warmth-evoked currents in primary mouse keratinocytes. J. Biol. Chem. 279, 21569-21575 (2004)].
as §3

mouse TRPV3-YFP [2] = molecular target: T1, mouse TRPV3-YFP; assay: Whole-cell voltage-clamp, TRPV3-YFP expressing HEK293 cells; conditions: IA 200 μM; 2-APB 100 μM; charge −85 to −45 mV
Protocol: (§5) Electrophysiological recording. Currents were recorded using whole-cell voltage-clamp. Pipettes were pulled from microcapillary glass (A-M Systems). A coverslip containing cells was transferred to a 300 μL chamber that was constantly perfused (1-2 mL/min) with external solution. Voltage protocols were generated and data were digitized and recorded using Pulse (HEKA Elektronik) software in conjunction with an Axopatch 200A amplifier (Axon Instruments), and the data analyzed using an in-house Visual Basic (Microsoft) analysis program.
(§6) The external solution contained (in mM): 120 NaCl, 5 KCl, 1 MgCl2, 2 CaCl2, 10 Glucose and 20 HEPES, pH 7.4 with NaOH. The measured charge (pC) was defined as the charge elicited between -85 and -45 mV by a ramping voltage stimulus (−85 mV to +35 mV, 0.54 mV/msec; holding potential -55 mV). Currents were sampled at 5 kHz. Experimental and control cells were alternated whenever possible. Control values were obtained from adjacent cells with no detectable YFP fluorescence, presumed to be non-TRPV3-expressing.

mouse TRPV3-YFP [3] = assay: as above; conditions: IA 200 μM; 2-APB 100 μM; cells not expressing TRPV3
Protocol: as §5, §6

rat TRPV4 = molecular target: T3, rat TRPV4 (Rattus norvegicus, UniProt Q9ERZ8); assay: Calcium imaging of TRPV4 transfected HEK293 cells; conditions: IA 100 μM, compared to vehicle
T3 construct: expressed in transfected cells; host or cells: HEK293 cell line
T3 sequence (Q9ERZ8 whole entry): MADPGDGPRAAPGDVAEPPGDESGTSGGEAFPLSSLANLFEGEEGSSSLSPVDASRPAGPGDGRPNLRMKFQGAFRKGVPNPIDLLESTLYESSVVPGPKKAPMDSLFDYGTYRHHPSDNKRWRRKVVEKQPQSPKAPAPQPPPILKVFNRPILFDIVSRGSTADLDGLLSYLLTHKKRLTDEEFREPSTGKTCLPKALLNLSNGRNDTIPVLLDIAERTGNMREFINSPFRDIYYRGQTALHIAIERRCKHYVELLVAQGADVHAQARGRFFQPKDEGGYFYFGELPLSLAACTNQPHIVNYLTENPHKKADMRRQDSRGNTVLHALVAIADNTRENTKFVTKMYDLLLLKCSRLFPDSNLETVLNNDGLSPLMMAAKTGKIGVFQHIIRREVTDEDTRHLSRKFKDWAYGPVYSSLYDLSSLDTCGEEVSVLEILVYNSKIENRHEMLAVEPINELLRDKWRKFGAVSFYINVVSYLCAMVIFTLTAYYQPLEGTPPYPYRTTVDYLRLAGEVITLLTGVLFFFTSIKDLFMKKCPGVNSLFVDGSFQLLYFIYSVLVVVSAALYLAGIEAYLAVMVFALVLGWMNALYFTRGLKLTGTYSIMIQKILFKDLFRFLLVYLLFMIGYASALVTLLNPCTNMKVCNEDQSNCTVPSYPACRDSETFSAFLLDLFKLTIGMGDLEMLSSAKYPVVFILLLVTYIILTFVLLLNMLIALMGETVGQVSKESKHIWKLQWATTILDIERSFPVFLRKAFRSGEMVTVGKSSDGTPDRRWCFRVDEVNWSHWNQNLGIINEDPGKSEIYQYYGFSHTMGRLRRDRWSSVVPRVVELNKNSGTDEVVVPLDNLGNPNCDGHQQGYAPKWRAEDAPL
Protocol: as §1
TRPV3-YFP [O'dell, D. K., Rimmerman, N., Pickens, S. R. & Walker J. M. Fatty acyl amides of endogenous tetrahydroisoquinolines are active at the recombinant human TRPV1 receptor. Bioorg. Med. Chem. 15, 6164-6169 (2007)], TRPV4 and mock-transfected cell lines were cultured in DMEM 1× with L-glutamine (Mediatech, Inc. Herndon, Va.), containing 1% penicillin-streptomycin (Invitrogen, Carlsbad, Calif.) and 10% foetal bovine serum.
Calcium imaging of HEK 293 cells. TRPV1, TRPV3, and TRPV4 expressing HEK293 cells were plated 24-48 h before imaging in 96 well plates, loaded with 3 μM Fura-2 AM and imaged as previously described [O'dell, D. K., Rimmerman, N., Pickens, S. R. & Walker J. M. Fatty acyl amides of endogenous tetrahydroisoquinolines are active at the recombinant human TRPV1 receptor. Bioorg. Med. Chem. 15, 6164-6169 (2007)].

TRPV3 = molecular target: T4, TRPV3 (Mus musculus, UniProt Q8K424); assay: Calcium imaging of TRPV3+/+ and TRPV3−/− primary keratinocytes; design: endogenous in cells; host or cells: primary keratinocytes from TRPV3+/+ mouse pups (day 1-4); TRPV3-/- cells as control; conditions: IA 500 μM; camphor 10 mM
T4 sequence (Q8K424 1-791): T1 sequence (Q8K424 1-791)
Excerpt: as §4
Calcium imaging of TRPV3^+/+ and TRPV3^−/− keratinocytes. Primary keratinocytes from TRPV3-deficient and WT mouse pups (day 1-4) were harvested and cultured as described [Chung, M. K., Lee, H., Mizuno, A., Suzuki, M. & Caterina, M. J. TRPV3 and TRPV4 mediate warmth-evoked currents in primary mouse keratinocytes. J. Biol. Chem. 279, 21569-21575 (2004)].
Cells were plated on glass coverslips (10^5/cm^2) and incubated for 48-60 h, then loaded with fura-2 AM (20 μM, 0.04% pleuronic acid, 32° C. for 1 h) in imaging buffer containing (in mM): 130 NaCl, 2.5 CaCl2, 0.6 MgCl2, 10 HEPES, 1.2 NaHCO3, 10 glucose, pH 7.45. Ratiometric Ca^2+ imaging was performed as previously described [O'dell, D. K., Rimmerman, N., Pickens, S. R. & Walker J. M. Fatty acyl amides of endogenous tetrahydroisoquinolines are active at the recombinant human TRPV1 receptor. Bioorg. Med. Chem. 15, 6164-6169 (2007)]. Drug was added to the bath following a period of baseline recording. Calcium measurements were made from 30 randomly selected cells per coverslip.
Data analysis of calcium imaging data. Analysis of calcium imaging data was done using a non-linear regression curve fit (Graphpad 4 Prism, San Diego, Calif.). t tests and one way ANOVA were calculated using SPSS (Chicago, Ill.). […] Averaged drug responses over 30 randomly selected cells per coverslip were analyzed with two-tailed unpaired t tests.

TRPV1 = TRPV1 (Homo sapiens, UniProt Q8NER1); assay: Calcium imaging of TRPV1-transfected HEK293 cells; conditions: IA 100 μM, compared to vehicle
TRPV1, sequence (Q8NER1 whole entry): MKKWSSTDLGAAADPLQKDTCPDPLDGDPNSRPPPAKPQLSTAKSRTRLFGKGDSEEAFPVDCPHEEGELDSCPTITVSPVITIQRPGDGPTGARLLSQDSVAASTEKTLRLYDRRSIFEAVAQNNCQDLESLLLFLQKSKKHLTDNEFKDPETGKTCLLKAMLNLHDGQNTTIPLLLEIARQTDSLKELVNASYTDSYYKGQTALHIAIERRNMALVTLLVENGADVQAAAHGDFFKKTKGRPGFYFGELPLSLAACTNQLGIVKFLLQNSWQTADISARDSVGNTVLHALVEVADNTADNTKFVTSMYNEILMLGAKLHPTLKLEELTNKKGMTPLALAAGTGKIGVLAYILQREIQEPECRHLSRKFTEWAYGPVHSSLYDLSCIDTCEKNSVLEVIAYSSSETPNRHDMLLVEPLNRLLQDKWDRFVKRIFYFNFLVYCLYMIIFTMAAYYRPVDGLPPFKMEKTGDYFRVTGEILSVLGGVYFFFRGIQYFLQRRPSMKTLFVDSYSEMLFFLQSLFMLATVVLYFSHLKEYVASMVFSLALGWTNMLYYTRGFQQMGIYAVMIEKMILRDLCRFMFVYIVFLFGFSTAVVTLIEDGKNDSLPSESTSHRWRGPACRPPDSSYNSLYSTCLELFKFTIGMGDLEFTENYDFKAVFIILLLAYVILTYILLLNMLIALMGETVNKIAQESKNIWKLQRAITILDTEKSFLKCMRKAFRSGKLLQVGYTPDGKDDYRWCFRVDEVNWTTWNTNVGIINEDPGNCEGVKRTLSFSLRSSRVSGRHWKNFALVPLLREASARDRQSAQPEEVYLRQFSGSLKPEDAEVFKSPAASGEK
Protocol: as §1
Human HEK 293 cells stably expressing TRPV1 were a kind gift from Merck Research Laboratories (Whitehouse Station, N.J.). Cells were cultured in minimal essential medium, Eagle, modified with non-essential amino acids, 1 mM sodium pyruvate, 2 mM L-glutamine and 1.5 g/L sodium bicarbonate (ATCC, Mabassas, Va.), containing 1% Penicillin-streptomycin, and 10% foetal bovine serum. Cells were passaged three times a week using Trypsin-EDTA 1× (Invitrogen, Carlsbad, Calif.) and grown under 5% CO2 at 37° C.
as §2

IκBα degradation = IκBα degradation in TNFα-stimulated HeLa cells (Western blot); conditions: HeLa cells pre-incubated 2 hrs, then TNFα 20 ng/ml for 20 minutes
Protocol: HeLa cells were pre-incubated with IA (FIG. 1A) or IN (FIG. 1B) at the indicated concentrations for 2 hrs prior to 20 minutes exposure to TNFα (20 ng/ml). At least three more experiments were repeated with highest indicated dose, resulting similarly.
IκBα Degradation. HeLa cells were pre-incubated with IA (50 μg/ml, dissolved in ethanol) for 2 hrs, and then stimulated for 20 minutes with TNFα (20 ng/ml, Emeryville, Calif., USA). After removing the slides from plates for immonostaining (see below), proteins were extracted from remaining cells in the plates. Proteins were extracted from cells in NP-40 lysis buffer. Total protein concentration was determined using the Bradford method. Lysates were then analyzed either by Western blotting (WB).
Western Blot (WB). Following separation by SDS-PAGE, proteins were blotted to a polyvinylidene difluoride (PVDF) membrane (Millipore). The membrane was blocked in 5% (w/v) milk powder and then incubated in TBST containing the primary antibody and 2% (w/v) milk powder. All phospho-specific antibodies were purchased from Cell signaling Inc. αIκBa, αp65 and αCOX2 antibodies from Santa Cruz Inc. (California, USA). After binding of an appropriate secondary antibody coupled to horseradish peroxidase, proteins were visualized by enhanced chemiluminiscence according to the instructions of the manufacturer (Amersham Lifescience).

**Q.** `NCCOB(c1ccccc1)c1ccccc1` [2-APB, 2-aminoethyl diphenylborinate, reference compound] was tested. Which “calcium influx vs vehicle” value (mouse TRPV3-YFP [1]) did it give?
**A.** evoked robust calcium increases

**Q.** What about the “calcium influx in rat-TRPV2 transfected HEK293 cells” value (rat-TRPV2) of the same compound?
**A.** robustly increased calcium

**Q.** And the “current activation in TRPV3(+) HEK293 cells” value (mouse TRPV3-YFP [2])?
**A.** activates currents

**Q.** And the “current activation in TRPV3(−) control cells” value (mouse TRPV3-YFP [3])?
**A.** not in TRPV3(−) cells

**Q.** With `CCCCCCCCCC(=O)O[C@@H]1[C@@H](C)[C@@]2(O)[C@@H](C=C(CO)C[C@@]3(O)C(=O)C(C)=C[C@@H]23)[C@@H]2C(C)(C)[C@]12OC(=O)CCCCCCCCC` [4αPDD, reference compound] as the compound, how does the “calcium influx in TRPV4 transfected HEK293 cells” value (rat TRPV4) read?
**A.** robust calcium increase

**Q.** Which “calcium influx in primary keratinocytes from WT mice” value (TRPV3) does the source give for `CC12CCC(CC1=O)C2(C)C` (centres unmarked) [Camphor, camphor, reference compound] here?
**A.** showed a similar effect

**Q.** For `COc1cc(CNC(=O)CCCC/C=C/C(C)C)ccc1O` [Capsaicin, reference compound], which “calcium influx in TRPV1-transfected HEK293 cells” value (TRPV1) is on record?
**A.** robust calcium increase

**Q.** For `C/C1=C\CC2(C(C)C)CCC(C)(O2)C(O)CC/C(C)=C/CC1` (centres unmarked) [IN, incensole], which IκBα degradation (IκBα degradation) is on record?
**A.** inhibited IκBα degradation in a dose dependent manner
